What was measured:
Format in all cases: cell-based
[1] = target: T1, RXRa (NR2B1) (Homo sapiens, UniProt P19793); test: nuclear hormone receptor reporter gene assay; settings: concentrations up to 10 μM
T1 sequence (P19793 1-462): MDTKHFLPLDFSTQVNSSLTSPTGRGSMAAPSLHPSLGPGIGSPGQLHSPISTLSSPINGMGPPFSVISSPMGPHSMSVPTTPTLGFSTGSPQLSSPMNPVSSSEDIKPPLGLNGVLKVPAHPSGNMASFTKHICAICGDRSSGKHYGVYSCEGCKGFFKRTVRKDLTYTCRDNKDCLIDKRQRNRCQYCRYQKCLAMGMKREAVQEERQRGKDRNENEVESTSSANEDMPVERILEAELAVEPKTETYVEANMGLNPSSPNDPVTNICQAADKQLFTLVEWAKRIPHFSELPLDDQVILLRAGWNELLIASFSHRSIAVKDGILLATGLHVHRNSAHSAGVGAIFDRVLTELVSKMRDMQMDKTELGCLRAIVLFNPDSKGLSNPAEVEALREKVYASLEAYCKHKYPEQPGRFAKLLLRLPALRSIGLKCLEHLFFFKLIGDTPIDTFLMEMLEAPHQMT
Text: (§1) So far oxysterols have been noted to have various physiological activities namely regulate the expression of genes that participate in both sterol and fat metabolism, serve as substrates for the synthesis of bile acids, and are intermediates in the transfer of sterols from the periphery to the liver (Russell, D. W. (2000). Oxysterol biosynthetic enzymes. Biochim. Biophys. Acta 1529, 126-135). […] This included binding assays for 26 different GPCRs, functional assays of 9 different GPCRs, 40 kinase assays, as well as selected ion channels, proteases, transporter and enzyme assays.

[2] = target: T2, FXRa (NR1H4) (Homo sapiens, UniProt Q96RI1); test: nuclear hormone receptor reporter gene assay; settings: concentrations up to 10 μM
T2 sequence (Q96RI1 1-486): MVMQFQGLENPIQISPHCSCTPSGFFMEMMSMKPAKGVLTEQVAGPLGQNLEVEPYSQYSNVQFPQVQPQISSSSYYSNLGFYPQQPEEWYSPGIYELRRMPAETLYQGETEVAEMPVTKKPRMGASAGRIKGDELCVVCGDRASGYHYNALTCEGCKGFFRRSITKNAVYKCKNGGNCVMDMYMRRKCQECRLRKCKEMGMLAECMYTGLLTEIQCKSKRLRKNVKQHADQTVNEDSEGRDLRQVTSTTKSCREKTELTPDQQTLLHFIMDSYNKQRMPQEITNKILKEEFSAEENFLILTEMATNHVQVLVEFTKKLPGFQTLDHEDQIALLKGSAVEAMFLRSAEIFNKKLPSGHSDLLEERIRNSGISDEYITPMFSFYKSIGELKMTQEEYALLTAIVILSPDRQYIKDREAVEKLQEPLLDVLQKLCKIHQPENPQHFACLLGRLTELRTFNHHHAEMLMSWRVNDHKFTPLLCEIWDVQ
Text: as §1

[3] = target: T3, hEBI2 (Homo sapiens, UniProt P32249); test: aequorin assay, hEBI2 stably transfected CHO-AeqGα16 cells; design: expressed in transfected cells; host or cells: CHO-K1 expressing apoaequorin (CHO-Aeq) with Gqi5; line E2
T3 sequence (P32249 whole entry): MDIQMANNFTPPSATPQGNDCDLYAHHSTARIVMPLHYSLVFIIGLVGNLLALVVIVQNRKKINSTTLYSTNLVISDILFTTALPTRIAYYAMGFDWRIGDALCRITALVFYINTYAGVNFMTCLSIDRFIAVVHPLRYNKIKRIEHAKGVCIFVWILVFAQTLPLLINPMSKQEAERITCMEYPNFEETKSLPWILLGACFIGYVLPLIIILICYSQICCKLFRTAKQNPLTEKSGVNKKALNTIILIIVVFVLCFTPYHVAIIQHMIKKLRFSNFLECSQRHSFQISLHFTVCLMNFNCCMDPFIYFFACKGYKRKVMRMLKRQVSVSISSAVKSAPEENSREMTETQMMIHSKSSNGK
Protocol: Stable cell line expressing human EBI2 (in pcDNA3.1 vector) and Gα16 was generated with parental CHO cells that stably express apo-aequorin (Euroscreen CHO-A12 cell line). The cells were seeded into 384 well black clear bottom plates (Greiner Bio-one) at 10,000 cells/25 μl well in F12 medium containing 3% FBS and incubated overnight. Coelenterazine (20 μM final) was added into the cell plates at 25 μl/well. The cell plates were returned to incubator for 3 hrs. The compounds were diluted 1:20 into an intermediate plate with Tyrode buffer (130 mM NaCl, 2 mM CaCl2, 5 mM NaHCO3, 5 mM KCl, 1 mM MgCl2, 20 mM HEPES, pH 7.4). 12.5 μl/well of pre-diluted compounds were transfered into the cell assay plate and read on LumiLux™ (Perkin Elmer) for flash luminescence.
An algorithm similar to area under curve (AUC) was created in house to analyze the aequorin kinetic data, which was named Slope Threshold (Slope 100). The algorithm defines the beginning and the end of the luminescence intensity peak by comparing the difference in intensity of each time point with an earlier time point, and determining if the difference exceeds a defined threshold, which was usually set at 100. If it does, then the intensity of the later time point is added into the Slope Threshold's sum.

[4] = target: T3, hEBI2; test: cAMP assay, hEBI2 CHO-AeqGα16 cells; design: expressed in transfected cells; host or cells: CHO-K1 expressing apoaequorin (CHO-Aeq) with Gqi5; line E2
Protocol: The same stable EBI2 cell line used in the aequorin assay was used in cAMP assay. 10,000 cells (25 μA) were seeded per well into white solid 384-well plate and incubated in 37° C. incubator overnight. 500 nl of compound was then transferred into each assay well, followed by 5 μl of forskolin addition for a final concentration of 30 μM. Cells were returned to a 37° C. incubator for 30 min. Finally 15 μl each of HiRange D2-cAMP and anti-cAMP cryptate were dispensed per well. After >1 hr room temperature incubation, data acquisition was done in the time-resolved FRET (fluorescence-resonance energy transfer) mode on Envision™ or ViewLux™ (Perkin Elmer). The ratio between the acceptor fluorescence signal (A665 nm) and donor fluorescence signal (A620 nm)×104, representing the FRET between the conjugated cAMP and the anti-cAMP antibody, was calculated and plotted on Y-axis. The higher the signal, the lower endogenous cAMP concentration is in the sample.

Q: `C[C@H](CCCC(C)(C)O)[C@H]1CC[C@H]2[C@@H]3[C@H](O)C=C4C[C@@H](O)CC[C@]4(C)[C@H]3CC[C@]12C` [7a,25DHC, cholest-5-ene-3b,7a,25-triol] was tested. Which “activation of RXRa” value [1] did it give?
A: did not activate

Q: And the “activation of FXRa” value [2]?
A: did not activate

Q: What about the EC50 [3] of the same compound?
A: 18.4 nM

Q: What about the EC50 [4] of the same compound?
A: 10.3 nM

Q: Which “activation of RXRa” value [1] does the source give for `CC(CO)CCC[C@@H](C)[C@H]1CC[C@H]2[C@@H]3[C@H](O)C=C4C[C@@H](O)CC[C@]4(C)[C@H]3CC[C@]12C` (some centres unmarked) [7a,27DHC, cholest-5-ene-3b,7a,27-triol] here?
A: did not activate

Q: And the “activation of FXRa” value [2]?
A: did not activate

Q: With `C[C@H](CCCC(C)(C)O)[C@H]1CC[C@H]2[C@@H]3[C@@H](O)C=C4C[C@@H](O)CC[C@]4(C)[C@H]3CC[C@]12C` [7b,25DHC, cholest-5-ene-3b,7b,25-triol] as the compound, how does the EC50 ([3]; CHO-AeqGα16, read-out: EC50, activation of EBI2 (aequorin)) read?
A: 398 nM

Q: What about the EC50 ([4]; forskolin 30 μM, read-out: EC50, cAMP assay) of the same compound?
A: 10600 nM

Source: patent US8497075B2, “Methods of identifying a modulator that inhibits the binding between Epstein-Barr virus induced receptor 2 and cholesterol derived ligands” (Novartis AG, priority 2008, dated 2013)
